According to patent US20240398899A1 (priority 2021, published 2024):

What was measured:
SH-SY5Y neuronal cells [1] = experiment: Mitochondrial membrane potential against MPP+ iodide damage, JC-1 assay; assay type: cell-based, human; settings: MPP+ iodide 1 mM; for Mitochondrial membrane potential: red/green fluorescence ratio
Description: The plated cells were incubated overnight in 5% CO2 incubator at 37° C. After 24 h, cells were treated with concentrations of recombinant lectin protein having SEQ ID NO: 1 ranging from 1 μg/ml-50 μg/ml for 24 h. After 24 h of treatment, cells were exposed to damage (MPP+ iodide 1 mM) for 24 h. […] Untreated cells were included as control. Cells treated with Deprenyl served as positive control. After MPP+ iodide exposure, the protective effect of recombinant lectin protein having SEQ ID NO: 1 on mitochondrial membrane potential was assessed by JC-1 assay as follows; after incubation, the supernatants were discarded and 100 μl of JC1-dye solution (prepared by diluting 1 mM DMSO stock in to 10 μM in 1×PBS) was added to each well. The cells were then incubated with the dye in CO2 incubator at 37° C. for 15 min. After 15 min of incubation, the supernatant was removed, and the cells were washed twice with 1×PBS (phosphate buffer saline). 100 μl of 1×PBS was finally added to each well. Red fluorescence (excitation 550 nm, emission 600 nm) and green fluorescence (excitation 485 nm, emission 535 nm) were measured using Biotek Synergy HT plate reader. The mitochondrial membrane potential (Δψm) was calculated as the ratio of intensity of red fluorescence to intensity of green fluorescence described as follows: • Δψm=Intensity of red fluorescence/Intensity of green fluorescence • The percentage increase/restoration in Mitochondrial Membrane Potential against MPP+ iodide damage was calculated as:
[formula] • Where X=Δψm corresponding to SEQ ID NO: 1+ MPP+ iodide treated cells • R=Δψm corresponding to control cells (MPP+ iodide damage alone)

SH-SY5Y neuronal cells [2] = experiment: Sub (G0/G1) cell population by PI cell cycle assay against MPP+ iodide damage; assay type: cell-based, human; settings: MPP + Iodide (2 mM); for % Decrease in Apoptotic cells (wrt MPP + iodide): SubG0/G1
Description: After incubation as in Example 2a and 2b, cells were harvested by trypsinization and processed for Cell cycle assay as follows: Cell cycle reagent contains PI stain, which stains DNA of cells in different phases of cell cycle; Sub (G0/G1), G1, S, G2 and M. Cells in Sub (G0/G1) phase correspond to apoptotic cells.
Cells were gently harvested into pre-labelled centrifuge tubes and centrifuged at 450 g for 5 min, RT (low brake). The supernatants were removed carefully and discarded. 1 ml of 1×PBS was added to the pellet and resuspended gently to make homogenous suspension. Cells were centrifuged at 450 g for 5 min, RT (low brake). The supernatant was carefully removed leaving behind approximately 100 μl of PBS. Cells were resuspended gently yet thoroughly in residual PBS. The cells were fixed by adding Ice-cold 70% ethanol (100 μl) added dropwise into cells in each tube while vortexing at low speed Cells were stored at 4° C. for 24 h prior to staining.
Ethanol fixed cells were centrifuged at 450 g for 5 min, RT (low brake) the supernatant was carefully removed (not to touch the pellet) and discarded. 1 ml of 1×PBS was added into pellet and resuspended gently. Cells were incubated for 1 minute at RT. Cells were centrifuged at 450 g for 5 min, RT (low brake). (washing step) The supernatant was removed carefully leaving behind approx. 20 μl-50 μl of PBS. 200 μl of Cell Cycle reagent was added into each tube. Cells were resuspended gently and mixed. Cells were incubated for 30 min, RT, Dark. The stained samples were transferred into 96-well plates and acquired on flow cytometer (Guava technologies). Percentage of cells in Sub (G0/G1) phase were determined.
Percent inhibition in apoptotic cells=[(% Sub(G0/G1)cells in MPP+iodide alone) −(% Sub(G0/G1)cells in SEQ ID NO:1+MPP+iodide)/% Sub(G0/G1)cells in MPP+iodide alone]*100

## C#CCN(C)[C@H](C)Cc1ccccc1 [Deprenyl, reference compound]
SH-SY5Y neuronal cells [1]; 1 μM
  % Increase in Mitochondrial potential (w.r.t. control): 58.2%
  Mitochondrial membrane potential: 2.9
SH-SY5Y neuronal cells [1]; 10 μM
  % Increase in Mitochondrial potential (w.r.t. control): 67.9%
  Mitochondrial membrane potential: 3.1
SH-SY5Y neuronal cells [1]; 25 μM
  % Increase in Mitochondrial potential (w.r.t. control): 95.3%
  Mitochondrial membrane potential: 3.6
SH-SY5Y neuronal cells [1]; 50 μM
  % Increase in Mitochondrial potential (w.r.t. control): 79.6%
  Mitochondrial membrane potential: 3.3
SH-SY5Y neuronal cells [1]; 100 μM
  % Increase in Mitochondrial potential (w.r.t. control): 39.9%
  Mitochondrial membrane potential: 2.6
SH-SY5Y neuronal cells [2]; 10 μM
  % Apoptotic cells (SubG0/G1): 2.9%
  % Decrease in Apoptotic cells (wrt MPP + iodide): 12.8%
SH-SY5Y neuronal cells [2]; 25 μM
  % Apoptotic cells (SubG0/G1): 2.4%
  % Decrease in Apoptotic cells (wrt MPP + iodide): 28.3%
SH-SY5Y neuronal cells [2]; 100 μM
  % Apoptotic cells (SubG0/G1): 2%
  % Decrease in Apoptotic cells (wrt MPP + iodide): 42%
